Measured values from BigSolDB 2.1.

CC[C@H](C)[C@H](N)C(=O)O
solubility (mole fraction)
Settings | 283.15 K | 288.15 K | 293.15 K | 298.15 K | 303.15 K | 308.15 K | 313.15 K | 318.15 K | 323.15 K | 328.15 K
in 1,4-dioxane | – | 0.00118 | 0.00132 | 0.00146 | 0.00172 | 0.00195 | 0.00226 | 0.00258 | 0.00303 | 0.00339
in 2-butanone | 0.000223 | 0.000324 | 0.000415 | 0.000538 | 0.000646 | 0.000819 | 0.000978 | 0.00118 | 0.00145 | –
in acetone | 1.21e-05 | 1.47e-05 | 1.82e-05 | 2.04e-05 | 3.19e-05 | 4.37e-05 | 6.14e-05 | 8.28e-05 | 0.000132 | –
in acetonitrile | 0.000153 | 0.000185 | 0.000276 | 0.000303 | 0.000374 | 0.000451 | 0.000525 | 0.000582 | 0.0007 | –
in ethanol | 0.000199 | 0.000227 | 0.000285 | 0.000363 | 0.000532 | 0.000716 | 0.000881 | 0.00101 | 0.00118 | –
in ethyl acetate | 0.000398 | 0.000441 | 0.000482 | 0.000544 | 0.000609 | 0.000656 | 0.000722 | 0.000803 | 0.000891 | –
in isobutanol | 0.00106 | 0.00125 | 0.0015 | 0.00186 | 0.00216 | 0.00246 | 0.00298 | 0.00346 | 0.00394 | –
in isopropanol | 0.00147 | 0.00173 | 0.00207 | 0.00241 | 0.00285 | 0.0034 | 0.00394 | 0.00454 | 0.00494 | –
in methanol | 0.000793 | 0.000814 | 0.000848 | 0.000891 | 0.000935 | 0.000984 | 0.00105 | 0.00114 | 0.00125 | –
in methyl acetate | 0.00174 | 0.00194 | 0.00223 | 0.00263 | 0.00292 | 0.00332 | 0.00387 | 0.00472 | 0.00545 | –
in n-butanol | 9.12e-05 | 0.000142 | 0.000221 | 0.000282 | 0.000372 | 0.000468 | 0.000585 | 0.00068 | 0.000838 | –
in n-propanol | 0.000187 | 0.000226 | 0.000268 | 0.000349 | 0.000515 | 0.00069 | 0.000817 | 0.0009 | 0.00101 | –
